Experimental data from patent US20120277246A1, “Use of N-Phenyl-2-pyrimidineamine Derivatives Against Mast Cell-based Diseases Like Allergic Disorders” (priority 2001, published 2012).

Experiments:
[1] = system: C2 canine mastocytoma cells; assay: Proliferation of C2 cells, XTT-based assay; assay type: cell-based; conditions: C2 cells (data not shown)
[2] = target: T1, constitutively activated mutant canine KIT (BR cells, Leucine to Proline substitution at amino acid 575) (Canis lupus familiaris, UniProt O97799, L579P); assay: KIT autophosphorylation in BR cells (anti-P-Tyr Western immunoblot); assay type: cell-based
T1 construct: Lysates prepared from BR or C2 cells were probed with an anti-P-Tyr antibody; endogenous in cells; host or cells: BR canine mastocytoma cell line
Source text: (§1) Antibodies: A polyclonal rabbit anti-KIT antibody (c-kit Ab-1) was used at a dilution of 1:500 (c-kit Ab-1; Oncogene, Cambridge, Mass.). An anti-phosphotyrosine antibody (PY20) was used at a dilution of 1:1000 (PY20 Transduction Laboratories; Lexington, Ky.). Peroxidase conjugated goat anti-mouse antibody was used at a dilution of 1:5000 and goat anti-rabbit antibody at a dilution of 1:10,000 (Pierce; Rockford, Ill.).
(§2) Cell lines: BR and C2 canine mastocytoma cells lines were obtained from Dr. George Caughey (University of California at San Francisco, San Francisco, Calif.). Both cell lines were maintained in DMEM supplemented with 2% bovine calf, 1 mM L-glutamine, 12.5 mM HEPES (pH 7.5), 0.25 mg/ml Histidine, 1% Penicillin-Streptomycin and 1% fungizone. The BR and C2 cells were derived from canine mast cell tumors and were originally established in long-term culture after initial passaging in immunodeficient mice (DeVinney R et al., Am J Respir Cell Mol Biol 1990; 3(5):413-420; Lazarus S C et al., Am J Physiol 1986; 251(6 Pt 1):C935-C944). The BR cell line has a point mutation (T1752C) resulting in a Leucine to Proline substitution at amino acid 575 (juxtamembrane domain). The C2 cell line has an internal tandem duplication (ITD) of the KIT juxtamembrane region.
(§3) Protein lysates: BR and C2 cells were washed×2 in PBS and then quiesced in Optimem (Gibco-BRL) at 37° C. for approximately 18 hours.
(§4) The KIT mutations in these cell lines are both located in the juxtamembrane domain and are homologous to mutations seen in human Gastrointestinal Stromal Tumors (GISTS) (Lux et al., Am. J. Pathol., Vol. 156, No. 3, pp. 791-795 (2000); Rubin et al., Cancer Res., Vol. 61, No. 22, pp. 8118-8121 (2001)). Lysates prepared from BR or C2 cells were probed with an anti-P-Tyr antibody and KIT receptor activation was assessed by measuring autophosphorylation.

[3] = system: C2 canine mastocytoma cells; assay: Proliferation of C2 cells, XTT-based assay; assay type: cell-based; conditions: for % (percent of maximal proliferation, cells only) / Averages (XTT-based assay reading): 72 hours; for Averages (XTT-based assay reading): triplicate
Procedure: as §2, with “region. The translation of this ITD results in reduplication of amino acid residues at the 3′ end of exon 11 (London et al., Exp. Hematol., Vol. 27, No. 4, pp. 689-697 (1999); Ma et al., J. Invest. Dermatol., Vol. 112, No. 2, pp. 165-170 (1999)).” for “region.”
(§5) Proliferation assays: Cells were added to 96-well plates at a density of 40,000 cells/well in normal culture media and varying concentrations of SALT I. Proliferation was measured at 48-72 hours using an XTT-based assay (Roche Molecular Biochemicals; Indianapolis, Ind.) (Heinrich et al., Blood, Vol. 96, No. 3, pp. 925-932 (2000))
(§6) Representative results from one of six independent experiments are shown.

[4] = system: cutaneous mast cell tumors; assay: Prospective case series of pet dogs with measurable cutaneous mast cell tumors; assay type: in vivo; conditions: 25 mg/kg PO QD x 60 days of SALT I, prospective example
Procedure: The study patients are pet dogs with measurable and histologically-confirmed mast cell tumors. Cases are limited to those with measurable lesions amenable to biopsy.
Eligibility criteria are: • Histologically-confirmed measurable cutaneous mast cell tumors • Cases will require serial biopsy with […] Keyes punch before and during therapy • Histological grade (II-intermediate or III-poorly differentiated) • Performance status 0 or I (Modified Karnofsky—Table 3) • Informed owner consent
Exclusion criteria are: • Concurrent cytotoxic chemotherapy • Prednisone and non-steroidal anti-inflammatory drugs may not be initiated within 30 days of the study; if prednisone or non-steroidal anti-inflammatory drugs have been administered for greater than 30 days they may be continued • Abnormal serum bile acid test (liver function)
Pretreatment evaluation of all cases include physical examination, complete blood count, buffy coat, serum biochemistry, urinalysis, serum bile acids (fasting and post-prandial), documentation of regional lymph node size, abdominal radiographs, and abdominal ultrasound. […]
The efficacy of COMPOUND I is assessed against measurable cutaneous mast cell tumors, using clinical endpoints. […]
Clinical endpoints include response rate of measurable tumors, objective response against measurable tumor, and time to progression of measurable tumor. All adverse side effects will be recorded.

[5] = system: BR canine mastocytoma cells; assay: Proliferation of BR cells, XTT-based assay; assay type: cell-based; conditions: for % (percent of maximal proliferation, cells only) / Averages (XTT-based assay reading): 72 hours; for Averages (XTT-based assay reading): triplicate
Procedure: as §2, with “region. The translation of this ITD results in reduplication of amino acid residues at the 3′ end of exon 11 (London et al., Exp. Hematol., Vol. 27, No. 4, pp. 689-697 (1999); Ma et al., J. Invest. Dermatol., Vol. 112, No. 2, pp. 165-170 (1999)).” for “region.”
as §5, §6

[6] = system: constitutively activated mutant canine KIT (C2 cells, internal tandem duplication of the juxtamembrane region); assay: KIT autophosphorylation in C2 cells (anti-P-Tyr Western immunoblot); assay type: cell-based
Source text: as §1, §2, §3, §4

[7] = system: cultured human mast cells generated from CD34+ cord blood cells; assay: SCF-dependent growth of cultured human mast cells (suspension culture, trypan-blue viable cell count); assay type: cell-based
Procedure: (§7) More than 90% of the isolated cells were CD34-positive according to the flow cytometric analysis.
(§8) Serum-deprived liquid cultures are carried out in 24-well culture plates (#3047; Becton Dickinson). Twenty thousand CD34^+ cells are cultured in each well containing 2 mL of […]-medium supplemented with 1% BSA, 300 μg/mL fully iron-saturated human transferrin (approximately 98% pure, Sigma), 16 μg/mL soybean lecithin (Sigma), 9.6 μg/mL cholesterol (Nakalai Chemicals Ltd., Japan) and 20 ng/mL of SCF, 10 ng/mL of GM-CSF, 2 U/mL of EPO, 10 ng/mL of TPO, different concentrations of a COMPOUND OF THE INVENTION, alone or in combination. In order to examine the effects of a COMPOUND OF THE INVENTION on the SCF-dependent development of mast cells, 10-week cultured cells grown with 20 ng/mL of SCF from CD34^+ cord blood cells are used as target cells. Five to ten×10^4 10-week cultured cells are incubated for 2 weeks in 24-well culture plates containing 20 ng/mL of SCF with or without various concentrations of a COMPOUND OF THE INVENTION. The plates are incubated at 37° C. in a humidified atmosphere flushed with a mixture of 5% CO2, 5% O2 and 90% N2. When the culture continued until 4 weeks, half of the culture medium is replaced every 2 weeks with fresh medium containing the factor(s). The number of viable cells is determined by a trypan-blue exclusion test using a hemocytometer.

[8] = system: cultured mast cells grown under stimulation with SCF; assay: Detection of cellular apoptosis (PI flow cytometry, DNA gel electrophoresis)
CD34+ cord blood cells = assay: Cell production by CD34+ cells under stimulation with SCF (suspension culture); assay type: cell-based, human; conditions: STI571B at 10^-6 M
Procedure: as §7, §8

[9] = membrane reprobed with anti-c-kit antibody

T1 sequence (O97799 28-979 L579P): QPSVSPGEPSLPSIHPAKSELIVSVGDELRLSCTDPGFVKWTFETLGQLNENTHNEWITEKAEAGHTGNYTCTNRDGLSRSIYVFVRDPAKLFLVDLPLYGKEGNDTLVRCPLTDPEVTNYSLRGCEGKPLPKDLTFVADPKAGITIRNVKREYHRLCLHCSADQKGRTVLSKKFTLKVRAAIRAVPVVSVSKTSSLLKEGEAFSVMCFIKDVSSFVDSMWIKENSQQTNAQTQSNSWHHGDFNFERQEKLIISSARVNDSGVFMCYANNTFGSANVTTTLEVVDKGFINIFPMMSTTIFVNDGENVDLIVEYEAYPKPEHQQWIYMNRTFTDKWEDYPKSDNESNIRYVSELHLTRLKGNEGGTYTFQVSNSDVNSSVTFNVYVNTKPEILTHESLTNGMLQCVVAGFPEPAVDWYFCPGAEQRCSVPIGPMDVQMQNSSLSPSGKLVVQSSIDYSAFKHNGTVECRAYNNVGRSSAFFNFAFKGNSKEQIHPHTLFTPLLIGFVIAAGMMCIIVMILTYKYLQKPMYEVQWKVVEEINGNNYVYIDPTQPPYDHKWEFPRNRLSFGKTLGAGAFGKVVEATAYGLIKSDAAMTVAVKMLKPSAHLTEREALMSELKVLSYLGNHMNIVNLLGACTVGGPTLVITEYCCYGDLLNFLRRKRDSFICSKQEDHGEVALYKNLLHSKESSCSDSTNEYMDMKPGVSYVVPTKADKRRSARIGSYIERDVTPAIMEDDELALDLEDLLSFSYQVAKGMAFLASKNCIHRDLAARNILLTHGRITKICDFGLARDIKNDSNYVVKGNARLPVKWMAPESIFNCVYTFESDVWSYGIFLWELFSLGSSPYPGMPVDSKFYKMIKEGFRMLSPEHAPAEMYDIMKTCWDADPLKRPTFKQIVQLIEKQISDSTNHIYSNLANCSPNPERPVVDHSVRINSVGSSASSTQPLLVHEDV

`Cc1ccc(NC(=O)c2ccc(CN3CCN(C)CC3)cc2)cc1Nc1nccc(-c2cccnc2)n1` [COMPOUND I] was tested, and the “morphologic observations of inhibitor treated cells” value [1] was “changes consistent with apoptosis”, the “inhibition of KIT autophosphorylation” value ([2]; 0.1 μM) was “Near complete inhibition” and the “inhibition of KIT autophosphorylation” value ([2]; 1.0 μM) was “complete inhibition”. The “inhibition of KIT autophosphorylation” value ([2]; 10 μM) was “complete inhibition”, the autophosphorylation of c-kit ([2]; 0.001-0.01 μM) was “Limited autophosphorylation” and the “expression of c-kit protein” value [2, 9] was “no change”. For the same compound, the “% (percent of maximal proliferation, cells only)” value ([3]; 1 μM) was 3%, the “Averages (XTT-based assay reading)” value ([3]; 1 μM) was 0.037 and the “% (percent of maximal proliferation, cells only)” value ([3]; 5 μM) was 3%. The “Averages (XTT-based assay reading)” value ([3]; 5 μM) was 0.032, the inhibition of proliferation ([3]; 0.001-0.01 μM, 48-72 hours) was “Partial inhibition” and the “decrease of proliferation compared to cells treated with media only” value ([3]; 0.1-10 μM, 48-72 hours) was 90-95%. For the same compound, the “% (percent of maximal proliferation, cells only)” value ([3]; .001 μM) was 86%, the “Averages (XTT-based assay reading)” value ([3]; .001 μM) was 1.065 and the “% (percent of maximal proliferation, cells only)” value ([3]; .01 μM) was 61%. The “Averages (XTT-based assay reading)” value ([3]; .01 μM) was 0.754, the “% (percent of maximal proliferation, cells only)” value ([3]; .1 μM) was 2% and the “Averages (XTT-based assay reading)” value ([3]; .1 μM) was 0.028. For the same compound, the “Objective Tumors Responses” value [4] was “observed”, the “morphologic observations of inhibitor treated cells” value ([5]; BR cells (data not shown)) was “changes consistent with apoptosis” and the “% (percent of maximal proliferation, cells only)” value ([5]; BR cells, 1 μM) was 11%. The “Averages (XTT-based assay reading)” value ([5]; BR cells, 1 μM) was 0.105, the “% (percent of maximal proliferation, cells only)” value ([5]; BR cells, 5 μM) was 9% and the “Averages (XTT-based assay reading)” value ([5]; BR cells, 5 μM) was 0.083. For the same compound, the inhibition of proliferation ([5]; BR cells, 0.001-0.01 μM, 48-72 hours) was “Partial inhibition”, the “decrease of proliferation compared to cells treated with media only” value ([5]; BR cells, 0.1-10 μM, 48-72 hours) was 90-95% and the “% (percent of maximal proliferation, cells only)” value ([5]; BR cells, .001 μM) was 84%. For the same compound, the “Averages (XTT-based assay reading)” value ([5]; BR cells, .001 μM) was 0.781, the “% (percent of maximal proliferation, cells only)” value ([5]; BR cells, .01 μM) was 52% and the “Averages (XTT-based assay reading)” value ([5]; BR cells, .01 μM) was 0.479. For the same compound, the “% (percent of maximal proliferation, cells only)” value ([5]; BR cells, .1 μM) was 11%, the “Averages (XTT-based assay reading)” value ([5]; BR cells, .1 μM) was 0.105 and the “inhibition of KIT autophosphorylation” value ([6]; 0.1 μM) was “Near complete inhibition”. The “inhibition of KIT autophosphorylation” value ([6]; 1.0 μM) was “complete inhibition”, the “inhibition of KIT autophosphorylation” value ([6]; 10 μM) was “complete inhibition” and the autophosphorylation of c-kit ([6]; 0.001-0.01 μM) was “Limited autophosphorylation”. For the same compound, the “expression of c-kit protein” value [6, 9] was “no change”.
With `Cc1ccc(NC(=O)c2ccc(CN3CCN(C)CC3)cc2)cc1Nc1nccc(-c2cccnc2)n1` [STI571B, N-{5-[4-(4-methyl-piperazino-methyl)-benzoylamido]-2-methyl-phenyl}-4-(3-pyridyl)-2-pyrimidine-amine monomesylate] the “number of viable cells” value ([7]; SCF plus STI571B, after day 2) was “declines in a time-dependent fashion”, the “number of viable cells” value ([7]; SCF plus STI571B, day 2) was “unchanged” and the total cell number ([7]; SCF plus STI571B, day 14) was “negligible level”. For the same compound, the “progeny generation in culture with SCF” value ([7]; STI571B at 10^-6 M or higher, 10-week cultured mast cells, SCF) was “almost completely inhibits”, the “percentage of sub-diploid nuclei” value ([8]; SCF plus STI571B, over culture period) was “increases with the culture period” and the “DNA laddering on gel electrophoresis” value ([8]; cells exposed to SCF plus STI571B) was “DNA laddering”. The “programmed death of cultured mast cells” value ([8]; grown under stimulation with SCF) was “induces a programmed death” and the “cell production by CD34+ cells under stimulation with SCF” value (CD34+ cord blood cells) was “markedly depresses”.
